Source: ChEMBL document CHEMBL4613324, “Design, Synthesis, and Evaluation of a Series of Novel Super Long-Acting DPP-4 Inhibitors for the Treatment of Type 2 Diabetes” (J Med Chem, 2020)
Calls of active or inactive are those of the source. The rule behind the calls is not given here.

Tests used:
[1] = Clearance in ICR mouse at 0.5 mg/kg, iv measured after 0.0833 to 120 hrs by LC-MS-MS analysis; type: ADME, organism-based; conditions: in vivo
[2] = Half life in ICR mouse at 2 mg/kg, po measured after 0.0833 to 120 hrs by LC-MS-MS analysis; type: ADME, organism-based; conditions: in vivo
[3] = AUC (0 to t) in ICR mouse at 2 mg/kg, po measured after 0.0833 to 120 hrs by LC-MS-MS analysis; type: ADME, organism-based; parameters: time upper 120 hr, time lower 0.083 hr, dose 2 mg/kg, route oral; conditions: in vivo
[4] = Volume of distribution at steady state in ICR mouse at 0.5 mg/kg, iv measured after 0.0833 to 120 hrs by LC-MS-MS analysis; type: ADME, organism-based; conditions: in vivo, read-out: Vdss
[5] = Half life in ICR mouse at 0.5 mg/kg, iv measured after 0.0833 to 120 hrs by LC-MS-MS analysis; type: ADME, organism-based; conditions: in vivo
[6] = Cmax in ICR mouse at 2 mg/kg, po measured after 0.0833 to 120 hrs by LC-MS-MS analysis; type: ADME, organism-based; parameters: dose 2 mg/kg, route oral; conditions: in vivo
[7] = Oral bioavailability in ICR mouse at 2 mg/kg measured after 0.0833 to 120 hrs by LC-MS-MS analysis; type: ADME, organism-based; conditions: in vivo
[8] = Intrinsic clearance in mouse liver microsomes at 0.5 uM incubated for 0.5 to 60 mins by LC-MS/MS analysis; type: ADME, Microsome; conditions: read-out: CLH
[9] = target: Dipeptidyl peptidase 4 (Mus musculus) (UniProt P28843); assay: Ex-vivo inhibition of DPP4 in plasma isolated from ob/ob mouse treated at 30 mg/kg, po measured after 2 to 72 hrs by fluorescence based assay; type: functional, organism-based
[10] = target: Dipeptidyl peptidase 4 (Mus musculus) (UniProt P28843); assay: Ex-vivo inhibition of DPP4 in plasma isolated from ob/ob mouse assessed as time duration during which DPP4 inhibition rate stays above 80% treated at 30 mg/kg, po measured after 2 to 72 hrs by fluorescence based assay; type: functional, organism-based
Mus musculus [11] = assay: Antidiabetic activity in ob/ob mouse assessed as reduction in random blood glucose levels at 30 mg/kg, po dosed once every three days for 31 days; type: functional, organism-based
[12] = Toxicity in ob/ob mouse assessed as induction of body weight gain at 30 mg/kg, po dosed once every three days for 31 days; type: organism-based; conditions: in vivo, 744 h
Mus musculus [13] = assay: Antidiabetic activity in ob/ob mouse assessed as reduction in decrease in HbA1c level at 3 to 30 mg/kg, po dosed once every three days for 31 day; type: functional, organism-based
Mus musculus [14] = assay: Antidiabetic activity in ob/ob mouse assessed as reduction in decrease in HbA1c level at 30 mg/kg, po dosed once every three days for 31 day relative to control; type: functional; parameters: scale not given: the % may be the effect or the level left

Sequence of Dipeptidyl peptidase 4 (Mus musculus) (P28843 whole entry, looked up): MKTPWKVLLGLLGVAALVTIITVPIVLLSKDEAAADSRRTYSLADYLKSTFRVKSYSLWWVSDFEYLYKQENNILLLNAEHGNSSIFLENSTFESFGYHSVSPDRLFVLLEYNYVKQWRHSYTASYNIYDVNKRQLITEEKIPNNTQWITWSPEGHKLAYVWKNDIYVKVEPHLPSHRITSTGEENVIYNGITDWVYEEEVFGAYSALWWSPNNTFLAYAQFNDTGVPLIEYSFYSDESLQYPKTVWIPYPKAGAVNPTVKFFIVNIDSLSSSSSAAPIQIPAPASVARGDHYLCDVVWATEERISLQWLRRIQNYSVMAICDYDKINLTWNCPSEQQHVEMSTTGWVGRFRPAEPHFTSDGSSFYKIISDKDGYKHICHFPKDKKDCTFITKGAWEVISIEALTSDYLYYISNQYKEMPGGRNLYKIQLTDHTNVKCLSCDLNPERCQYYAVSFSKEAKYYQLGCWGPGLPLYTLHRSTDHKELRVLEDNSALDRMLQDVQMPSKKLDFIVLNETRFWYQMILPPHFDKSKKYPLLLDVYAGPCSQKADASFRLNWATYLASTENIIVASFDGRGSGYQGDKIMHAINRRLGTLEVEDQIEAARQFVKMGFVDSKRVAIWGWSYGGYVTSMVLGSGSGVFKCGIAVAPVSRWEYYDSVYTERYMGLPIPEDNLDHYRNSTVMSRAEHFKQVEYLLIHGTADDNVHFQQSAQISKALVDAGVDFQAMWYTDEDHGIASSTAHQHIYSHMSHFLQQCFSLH

CS(=O)(=O)n1cc2c(n1)CN([C@H]1CO[C@H](c3cc(F)ccc3F)[C@@H](N)[C@H]1F)C2
clearance [1]: 0.645 mL/min/kg | half-life [2]: 19.2 h | AUC(0-t) [3]: 23500 ng·h/mL | Vd [4]: 0.957 L/kg | half-life [5]: 20.9 h | Cmax [6]: 1580 ng/mL | bioavailability [7]: 45.4% | microsomal CLint at 0.5 µM [8]: 1.2 µL/min/mg

CS(=O)(=O)n1cc2c(n1)CN([C@@H]1C[C@H](N)[C@@H](c3cc(F)c(F)cc3F)O[C@@H]1C(F)(F)F)C2
clearance [1]: 1.44 mL/min/kg | half-life [2]: 20 h | AUC(0-t) [3]: 26500 ng·h/mL | Vd [4]: 2.27 L/kg | half-life [5]: 19.7 h | Cmax [6]: 999 ng/mL | bioavailability [7]: 114% | microsomal CLint at 0.5 µM [8]: 1.17 µL/min/mg

CS(=O)(=O)n1cc2c(n1)CN([C@H]1CO[C@H](c3cc(F)ccc3F)[C@@H](N)C1)C2 [OMARIGLIPTIN]
clearance [1]: 7.39 mL/min/kg | half-life [2]: 4.65 h | AUC(0-t) [3]: 4100 ng·h/mL | Vd [4]: 1.65 L/kg | half-life [5]: 3.05 h | Cmax [6]: 798 ng/mL | bioavailability [7]: 95% | microsomal CLint at 0.5 µM [8]: 1.89 µL/min/mg | inhibition [9]: Active | TIME [10]: 18 h | Activity (Mus musculus [11]): Active | Activity [12]: Toxic | Activity (Mus musculus [13]): Active | Activity (Mus musculus [14]): 13.6%
